This is an account of results in US9089586B2, “Levocarrimycin, pharmaceutical compositions, preparation methods and uses thereof” (SHENYANG TONGLIAN GROUP CO., LTD., priority 2010, dated 2015).

In brackets after ≈: the same amount, converted by molar mass.

The test system of test [1] is Gonococcus (10). Description: In vitro pharmacodynamics, clinical isolates, two-fold plate dilution. The format is cell-based. As to conditions: 10 clinical isolates of Gonococcus.
The test system of test [2] is urea plasma urealyticum (Uu). Description: In vitro anti-urea plasma urealyticum MIC in U-PPLO. It counts as cell-based. On the procedure: 1. Test method: add U-PPLO 0.8 ml in sterile 12-pore cell culture plate (add 0.9 ml in bacteria liquid control pore and 1.0 ml in culture medium control pores).
3. Divide into 3 groups (100 μg/ml, 10 μg/ml and 1 μg/ml antibiotic stocksolution), Add experimental antibiotics (levocarrimycin in example 6 of the present invention, acetyl spiramycin, erythrocin and azithromycin) in each experimental pores with sterile Tip according to double degradation concentration gradient: 100 μl, 50 μl, 25 μl and 12.5 μl.
4. Blend the above pores evenly, seal the culture plate with an adhesive tape and then culture in 37° C. incubator.
5. Abserve and record the growth of Uu on 17-24 h after the test.

Test [3] deals with Staphylococcus aureus16. As to the kind of experiment: In vivo pharmacodynamic: mice abdominal cavity infected, half protective dose. The conditions noted are these: 168 h; mice infected with Staphylococcus aureus16, challenging dose 5.2 × 10^3 CFU/0.5 ml/mouse, intragastric administration, fatality within seven days. The procedure:
(§1) Test method: infectious bacteria liquid preparation: put the bacteria liquid stored in the −80° C. refrigerator into the room for about 1 h at room temperature, and respectively draw 0.1 ml bacteria liquid of streptococcus pneumonia, streptococcus pyogenes and enterococcus into 2 ml MH soup (add 10% inactivated horse serum); inoculate the 2 ml MH soup with 0.1 ml bacteria liquid of staphylococcus aureus according to the above method, place the liquid into 37° C. incubator for 18 h to get the original bacteria liquid, dilute the original bacteria liquid with 5% gastric mucin, take 100% lethal bacteria amount if animal gets infected as infectious bacteria liquid.
(§2) Oral administration is planned for clinical medication of levocarrimycin, thus intragastric administration is selected for levocarrimycin test. After intraperitoneal injection of 0.5 ml lethal bacterial amount to the mice' abdominal cavity, the mice appear following symptom, such as reduced activity, repose, hair became loose, and so on. Clyster with 0.2 ml for every mouse after infection 0.5-6 h, there is no adverse reaction. Observe animal fatality within seven days and calculate the half protective dose (EDO of drugs for infected mice and compare the protective effect of drugs througe Bliss order.

Test [4] relates to Staphylococcus aureus12. Described as above. The conditions noted are these: 168 h; mice infected with Staphylococcus aureus12, challenging dose 4.8 × 10^4 CFU/0.5 ml/mouse, intragastric administration, fatality within seven days. On the procedure: as §1, §2
Test [5] has as its system Streptococcus pneumonia57. The test is described as above. The conditions noted are these: 168 h; mice infected with Streptococcus pneumonia57, challenging dose 8.8 × 10^4 CFU/0.5 ml/mouse, intragastric administration, fatality within seven days. The procedure: as §1, §2
Test [6] has as its system Streptococcus pyogenes119. The test is described as above. The conditions noted are these: 168 h; mice infected with Streptococcus pyogenes119, challenging dose 4.9 × 10^4 CFU/0.5 ml/mouse, intragastric administration, fatality within seven days. The procedure: as §1, §2
The subject of test [7] is Streptococcus pneumonia3. As to the kind of experiment: MIC against the infecting test organism (Table 3). It counts as cell-based, Streptococcus pneumonia.
The test system of test [8] is Streptococcus pyogenes119. Description: MIC against the infecting test organism (Table 3). It counts as cell-based, Streptococcus pyogenes.
The subject of test [9] is chlamydia trachomatis serotype B/TW-5/OT. Description: In vitro anti-chlamydia MIC, McCoy cells, immunofluorescent staining of inclusions. It counts as cell-based. The conditions noted are these: Chlamydia trachomatis B/TW-5/OT in McCoy cells, 48 h.
For test [10], the system named is Streptococcus pyogenes772. Description: MIC against the infecting test organism (Table 3). It counts as cell-based, Streptococcus pyogenes.
Test [11] has as its system Enterococcus32. As to the kind of experiment: MIC against the infecting test organism (Table 4). The format is cell-based, Enterococcus.
In test [12] the test system is Staphylococcus aureus16. As to the kind of experiment: MIC against the infecting test organism (Table 4). The format is cell-based, Staphylococcus aureus.
Test [13] concerns Streptococcus pneumonia57. Description: MIC against the infecting test organism (Table 3). It counts as cell-based, Streptococcus pneumonia.
Test [14] concerns Staphylococcus aureus76. Description: MIC against the infecting test organism (Table 4). It counts as cell-based, Staphylococcus aureus.
Test [15] relates to chlamydia trachomatis serotype D/UW-3/Cx. Description: In vitro anti-chlamydia MIC, McCoy cells, immunofluorescent staining of inclusions. The format is cell-based. As to conditions: Chlamydia trachomatis D/UW-3/Cx in McCoy cells, 48 h.
In test [16] the test system is chlamydia pneumoniae CWL-029. As to the kind of experiment: In vitro anti-chlamydia MIC, HEp-2 cells, immunofluorescent staining of inclusions. As to conditions: Chlamydia pneumoniae CWL-029 in HEp-2 cells, 72 h. The format is cell-based.
In test [17] the test system is Streptococcus pyogenes102. Description: MIC against the infecting test organism (Table 3). It counts as cell-based, Streptococcus pyogenes.

The term MIC denotes the least concentration at which growth counts as inhibited. What is called ED50 is the dose at which the effect has come halfway, by size or by number of responders. Take `CC[C@H]1OC(=O)[C@H](C)[C@@H](O[C@H]2C[C@@](C)(OC)[C@@H](O)[C@H](C)O2)[C@H](C)[C@@H](O[C@@H]2O[C@H](C)C[C@H](N(C)C)[C@H]2O)[C@](C)(O)C[C@@H](C)CN(C)[C@H](C)[C@@H](O)[C@]1(C)O` [Azithromycin]: the minimum inhibitory concentration (MIC) lay within 0.12 to 64 µg/mL (≈ 0.16 to 85.4 µM) in test [1] and 0.025 to 0.125 µg/mL in test [2] (final MIC (24 h), determined 4 times, 10^3 CCU/ml, read-out: MIC of anti-urea plasma urealyticum strains). The ED50 was found to be 75.8 mg/kg in test [3], 217 mg/kg in test [4], 19.7 mg/kg in test [5] and 99 mg/kg in test [6].
As for `CC[C@H]1OC(=O)[C@H](C)[C@@H](O[C@H]2C[C@@](C)(OC)[C@@H](O)[C@H](C)O2)[C@H](C)[C@@H](O[C@@H]2O[C@H](C)C[C@H](N(C)C)[C@H]2O)[C@](C)(O)C[C@@H](C)C(=O)[C@H](C)[C@@H](O)[C@]1(C)O` [Erythrocin], in test [1], the MIC lay in the range of 0.12 to 64 µg/mL (≈ 0.164 to 87.2 µM). Besides, the anti-Uu function result in test [2] (verbal comparison of the four antibiotics) is listed as “the worst”.
As for Acetyl spiramycin, the MIC in [7] amounted to 0.5 µg/mL; in [8] it was 0.5 µg/mL; in [10], 0.25 µg/mL; in test [11] it was 1 µg/mL; in [12], 1 µg/mL; in test [13] it was 1 µg/mL. Besides, the results for the MIC in test [14] and in test [17] were 1 µg/mL and 0.5 µg/mL, respectively. Also, the results for the “Minimal inhibitory concentration (MIC)” value in test [9], in [15] and in test [16] were 4 µg/mL, 2 µg/mL and 0.5 µg/mL, respectively. Besides, in [1], the MIC scope lay in the range of 0.12 to 64 µg/mL. Also, the “MIC of anti-urea plasma urealyticum strains” value in test [2] (final MIC (24 h), determined 4 times, 10^3 CCU/ml) turned out to be 0.5 µg/mL.
